Data as given in patent US20250275940A1, “PTEROSTILBENE AND SILIBININ FOR PREVENTING, AMELIORATING OR REDUCING RADIATION-INDUCED DISEASES” (UNIVERSITAT DE VALÈNCIA, priority 2021, published 2025).

Key:
[1] = tested on: Swiss albino mice subjected to whole-body γ irradiation; assay: Survival of mice subjected to whole-body γ irradiation (LD50/30); assay type: in vivo
Excerpt: Swiss albino mice (male, 9-10 weeks old, 30-32 g) were obtained from Charles River Laboratories (Wilmington, MA). This strain is among the most common used in radiation studies (Williams 2010). Mice were fed with a nutritionally complete diet (standard diet, SD) before irradiation. This was A03 from Panlab (Barcelona, Spain), which has 3,200 kcal/kg and the following nutritional composition: crude protein, 23.5%; crude fat, 4.3%; crude fiber, 3.7%; and carbohydrates, 51.1%; vitamins and minerals were provided as in the NIH-7 open formula for rat and mouse. This diet meets the dietary allowances recommended for adult mice by the American Institute of Nutrition. The animals were fed ad libitum and kept in individual metabolic cages, in which body weight and food ingestion were monitored daily. The animal room was maintained at 22° C. on a 12 h light/12 h dark cycle. Ad libitum intake of drinking water was also allowed. Care of irradiated mice followed the recommendation of the Robert Wood Johnson Medical School (Piscataway, NJ) for mouse total body irradiation (policy 15), which includes: a) use of antibiotics in the drinking water (134 mg ampicillin/kg/day, 40 mg baytril/kg/day, and 220/42 mg sulfamethoxazole/trimethoprim/kg/day), b) making drinking water readily available, c) Napa nectar Systems Engineering Lab Group Inc., Napa, CA) provided on the bottom of the cage during the first 14 days and replaced daily, d) provision of softened food served in a small Petri dish on the cage floor, e) completely sterile environment (cage, food, and water) to avoid potential immunosuppression-associated infections. A free-standing wheel inside the cage was also included to facilitate the physical exercise of the animals. All experiments were started at 10.00 h to minimize possible circadian variations. Procedures involving animals were in compliance with international laws and policies (EEC Directive 86/609, OJ L 358. 1, Dec. 12, 1987; and NIH Guide for the Care and Use of Laboratory Animals, NIH Publ. No. 85-23, 1985). Mice were subjected to g-radiation (^137Cs) (total body irradiation, TBI) in a BIOBEAM 8000 (Gamma-Service Medical GmbH, Leipzig, Germany). Single fraction radiotherapy, at total doses ranging from approx. 5.0 to 10.0 Gy, was administered at a rate of approx. […]. The irradiation distance from the source was limited to 12 cm. Radiation dosimetry was controlled using alanine dosimeters from Bruker (Billerica, MA) with dosimetry variation of +/−0.09 Gy. […] NR (nicotinamide riboside, 3-aminocarbonyl-1-b-D-ribofuranosyl-pyridinium, Elysium Health, Inc., New York, NY) was dissolved in vaccination-grade water, and the pH of the solution neutralized (pH 7.0) before oral administration (185 mg/kg×day, Obrador 2020). FSL-1 (InvivoGen, San Diego, CA) was resuspended in sterile vaccination-grade water, and administered IP (0.25 mg/kg×day, the volume administered was of […] depending on the weight of the mouse, as recommended by Kurkjian 2017). Pharmaceutical grade amifostine (Ethyol) was obtained from Cumberland Pharmaceuticals (Nashville, TN) as 500 mg sterile lyophilized powder vial, and reconstituted with physiological saline prior to use.
First, the effects of γ radiation and mice survival were studied. […] Mice received whole-body γ radiation (one single dose; ^137Cs, 0.5-0.6 Gy/min; Biobeam 8000, GSM GmbH). One Gy=absorption of 1 J of energy/kg of matter.
Next, the thirty-days survival of mice treated with γ rays (LD50/30) and pterostilbene (PT) was analysed (FIG. 1B).

[2] = tested on: cellular NAD+ content; assay: NAD+ content of cells isolated from mice; assay type: in vivo; conditions: FIG. 14a
Procedure: (§1) FIG. 14. […] Cells were isolated 72 h after irradiation. […] Mice were treated and cells isolated as above (a).
Isolated cells were homogenized in 0.1M phosphate buffer (pH 7.2) at 4° C. γ-glu tamylcysteine ligase (GCL), glutathione peroxidase (GPX), catalase (CAT), and superoxide dismutase 1 and 2 (SOD1 and SOD2) activities were measured as previously described in detail (Benlloch 2016). Protein concentration was determined with the Pierce BCA protein assay (Thermo Fisher Scientific). Glutathione ([…]-L-glutamyl-L-cystenyl-glycine, GSH) was determined by LC/MS as previously reported (Obrador 2014). Cell processing was performed according to published methodology, where rapid N-ethylmaleimide derivatization was used to prevent GSH auto-oxidation (Asensi 1994). NAD^+ and NADH in isolated cells were quantitated using assay kits from MyBiosource (San Diego, CA).
Presumably, the effect of the polyphenols is an antioxidant-related mechanism, whereas the NR-induced increase in NAD+ directly promotes the DNA repair activity.

[3] = tested on: cellular DNA damage; assay: Comet assay of DNA damage in cells isolated from γ-irradiated mice; assay type: in vivo; conditions: FIG. 14c
Procedure: as §1
This assay is a single cell gel electrophoresis assay for simple evaluation of cellular DNA damage. We used the assay kit from Abcam (ab238544) (Cambridge, UK). The manufacturer's instructions were followed step by step.

[4] = tested on: hematopoietic colony forming cells CFU-GM and CFU-GEMM; assay: Colony forming cells in the bone marrow; assay type: in vivo; conditions: femurs of γ-irradiated mice, 7 days after irradiation, FIG. 14d
Procedure: as §1
Mice were sacrificed under aseptic conditions and femurs were isolated on day 7 post irradiation. Bone marrow cells were flushed from the isolated femurs (see above) with phosphate-buffered saline (4° C.) supplemented with 5% fetal bovine serum. Single-cell suspension was passed through 100 μm nylon mesh strainer to remove debris and clumps. Cells were washed twice with phosphate-buffered saline (4° C.) and counted using a hemocytometer. Cells were plated ex vivo at a concentration of 5×10^4 cells per 35 mm cell culture dish in Methocult GF M3434 (Stemcell Technologies, Vancouver, Canada) growth medium according to the manufacturer's protocol and incubated for 14 days at 37° C., 5% CO2, 95% humidity. Colonies were visualized on day 14 of culture using light microscopy (AxioCam MRc5, Zeiss, Oberkochen, Germany) under a polarised light and scanned in a 60 mm gridded scoring Petri dish (Stemcell Technologies). Hematopoietic colony forming cells CFU-GM and CFU-GEMM were quantified.

[5] = biological target: nicotinamide phosphoribosyltransferase (NAMPT) (Mus musculus, UniProt Q99KQ4); conditions: mice treated with FK866 for 6 days, FIG. 14b
Procedure: FK866 was administered in vivo (15 mg/kg, twice daily by intraperitoneal injection, during 6 days and starting 3 days prior to irradiation, see FIG. 11a), and was also present in the cell cultures (100 nM). Cells were isolated 72 h after irradiation. […] Mice were treated with the inhibitor for 6 days as above (a).
Formation of 14C-nicotinamide mononucleotide (NMN) from 14C-nicotinamide (NAM, (GE Healthcare Life Sciences, Björkgatan, Uppsala, Sweden) can be measured by precipitation of 14C-NMN in acetone on filter paper and scintillation counting. Cell dispersion was carried out by trypsinization (in Mg^2+- and Ca2^+-free PBS supplemented with 0.2% trypsin, 0.5 mM EDTA, and 5 mM glucose for 3 min at 37° C.). Cell pellets were obtained by centrifugation (800 g×5 min at 4° C.), and then 100 μl of phosphate buffer [0.01 M Na2HPO4/NaH2PO4 buffer, pH 7.4, containing protease inhibitor (Sigma-Aldrich)] was added to each cell sample. Samples were further processed, and NAMPT activity was determined on 30 μg of protein as described previously (Elliott G C, et al. 1980, and Schuster S, et al. 2014). Radioactivity (disintegrations/min) was measured using a Tri-Carb® Liquid Scintillation Counter from Perkin-Elmer. Background disintegrations/min from scintillation fluid was subtracted from each measurement.

[6] = PT, SIL and NAD+ levels in circulating blood; conditions: treated and irradiated mice, FIG. 10B
Procedure: Briefly, samples were analyzed through HPLC (Ultimate 3000, Thermo Fisher Scientific) and MS/MS (Waters TQ detector triple quadrupole) systems on a Hypurity™ C18 column (50×4.6 mm) using an injection volume of 5 μL. The mobile phases consisted of water (A) and acetonitrile (B). […] MS/MS data acquisition was performed under negative electrospray ionization mode. […] The fragmentary voltage was 150 V, and the collision energy 15 eV. Tissue sample preparation was as described for determination of PTER levels (above).
Whole-blood samples (0.5 ml) were collected in sodium citrate tubes at 4° C. Then a whole-blood aliquot of 0.1 ml was transferred to a cryovial containing 0.9 ml of 0.5 M ice-cold perchloric acid to lyse all blood cells. Samples were centrifuged at 10,000 g×10 min (4° C.). Supernatants were stored at −80° C. until analyzed.

[7] = 60 days after γ radiation (LD50/30), compounds administered orally, FIG. 2C
[8] = 60 days post γ irradiation (LD50/30), NR oral 185 mg/kg×day for 30 days after irradiation, FSL-1 IP 0.25 mg/kg once 24 h after, FIG. 9
[9] = 6 days after γ radiation (LD50/30), compounds administered orally, FIG. 2A

Sequence of nicotinamide phosphoribosyltransferase (NAMPT) (Q99KQ4 whole entry): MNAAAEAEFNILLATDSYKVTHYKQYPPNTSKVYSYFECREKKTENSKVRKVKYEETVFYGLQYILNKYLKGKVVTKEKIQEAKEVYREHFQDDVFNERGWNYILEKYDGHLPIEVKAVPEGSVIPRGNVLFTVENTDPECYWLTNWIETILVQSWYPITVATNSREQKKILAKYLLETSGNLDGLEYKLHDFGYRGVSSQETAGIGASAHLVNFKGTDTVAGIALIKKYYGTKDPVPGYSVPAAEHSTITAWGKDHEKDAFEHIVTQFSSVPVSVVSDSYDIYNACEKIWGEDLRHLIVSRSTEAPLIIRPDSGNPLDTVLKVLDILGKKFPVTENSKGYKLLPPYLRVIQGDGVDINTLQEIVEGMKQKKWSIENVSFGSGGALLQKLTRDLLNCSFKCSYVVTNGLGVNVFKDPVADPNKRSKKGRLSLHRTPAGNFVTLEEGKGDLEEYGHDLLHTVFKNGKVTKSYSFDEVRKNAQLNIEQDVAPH

Oc1ccc(C=Cc2cc(O)cc(O)c2)cc1 [Resv, resveratrol]
radioprotective effects compared with PT ([1]; orally once per day, 5 days before and 2 days after γ irradiation (7.2 Gy), FIG. 1C): lower than those of PT

O=c1c(-c2ccc(O)cc2)coc2cc(O)cc(O)c12 [Genistein, genistein]
survival [1, 7]: around 7%

Oc1cc(O)c2cc(O)c(-c3cc(O)c(O)c(O)c3)[o+]c2c1 [Delphinidin]
survival [1, 7]: around 12%

NC(=O)c1ccc[n+]([C@@H]2O[C@H](CO)[C@@H](O)[C@H]2O)c1 [NR, 3-aminocarbonyl-1-b-D-ribofuranosyl-pyridinium]
decrease of NAD+ induced by γ radiation ([2]; cells isolated 72 h after irradiation): prevents
NAD+ content in different cell types ([2]; cells isolated from treated mice): increases
DNA recovery (DNA damage COMET assay) [3]: favored DNA recovery
survival [1, 8]: 0%

FSL-1
hematopoietic colony forming cells CFU-GEMM [4]: increases
hematopoietic colony forming cells CFU-GM [4]: increases
survival [1, 8]: 5%

O=c1c(O)c(-c2ccc(O)c(O)c2)oc2cc(O)cc(O)c12 [Quercetin, quercetin]
survival [1, 7]: 0%

O=C(/C=C/c1cccnc1)NCCCCC1CCN(C(=O)c2ccccc2)CC1 [FK866, reference compound]
NAD+ levels in mice treated with PT+SIL+NR or PT+SIL+NR+γ rays ([2]; FK866 15 mg/kg twice daily IP 6 days and 100 nM in cell cultures): decreased
NAMPT activity [5]: drastic decrease

COc1cc([C@@H]2Oc3cc(C4Oc5cc(O)cc(O)c5C(=O)[C@H]4O)ccc3O[C@H]2CO)ccc1O (stereo in doubt) [SIL, 3,5,7-trihydroxy-2-[3-(4-hydroxy-3-methoxyphenyl)-2-(hydroxymethyl)-2,3-dihydro-1,4-benzodioxin-6-yl]-2,3-dihydrochromen-4-one]
SIL levels in circulating blood, 30 min vs 120 min [6]: higher 30 min after
survival [1, 7]: around 10%

O=C(CCc1ccc(O)cc1)c1c(O)cc(O)cc1O[C@@H]1O[C@H](CO)[C@@H](O)[C@H](O)[C@H]1O [Phloridzin, phloridzin]
survival [1, 7]: 0%

O=C(O)c1cc(O)c(O)c(O)c1 [Gallic acid, gallic acid]
survival [1, 9]: around 100%
survival [1, 7]: around 5%

O=C(O[C@@H]1Cc2c(O)cc(O)cc2O[C@@H]1c1cc(O)c(O)c(O)c1)c1cc(O)c(O)c(O)c1 [EGCG, epigallocatechin gallate]
survival [1, 9]: around 100%
survival [1, 7]: 0%

O=C1C[C@@H](c2ccc(O)cc2)Oc2cc(O)cc(O)c21 [Naringerin, naringenin]
survival [1, 7]: 0%

O=c1cc(-c2ccc(O)c(O)c2)oc2cc(O)cc(O)c12 [Luteolin, luteolin]
survival [1, 7]: 0%
percentage of survival reduced in ([1]; after 30 days, γ radiation (LD50/30), oral, FIG. 2B): about 40%
